Earlier results in US7871609B2, “Supplements for pain management” (priority 2007, dated 2011).
Counter-ions that a name gives are not always drawn. Like-named read-outs stand apart in the source and are kept apart here.

Tests used:
[1] = system: Trembler-J mouse model
[2] = system: cells in tissue culture that express PMP22 mutants; conditions: cells expressing PMP22 mutants
[3] = system: forced swimming test; conditions: chronic treatment 14 days, 1.25, 2.5, 5 and 10 mg/kg, p.o.
[4] = system: bilateral olfactory bulbectomy (OB) model
[5] = system: NF-kappaB signalling in human articular chondrocytes
[6] = system: chronically stressed rats
[7] = system: tumors or masses
[8] = system: spasmodic dysmenorrhea; conditions: 556 girls aged 12-21 yr, oral daily dose of 100 mg for 90 days
[9] = system: cultured cerebellar granule neurons (CGNs); conditions: exposure to amprolium
[10] = system: osteoarthritis (OA) of the knee
[11] = system: homocysteine-induced atherosclerosis; conditions: day 14, homocysteine thiolactone intake, supplemented versus deficient rats

COc1cc(/C=C/C(=O)CC(=O)/C=C/c2ccc(O)c(OC)c2)ccc1O [Curcumin, diferuloylmethane]
motor performance ([1]; mouse, in vivo): improved motor performance | myelinated axons in sciatic nerves ([1]; mouse, in vivo): increased number and size | neuropathy phenotype ([1]; oral administration, dose-dependent): partially mitigates the severe neuropathy phenotype | percentage of apoptotic Schwann cells ([1]; sciatic nerves): significantly decreases | apoptosis [2]: reduced apoptosis | immobility time [3]: reduced the immobility time | OB-induced behavioral abnormalities (hyperactivity in open field, deficits in step-down passive avoidance) ([4]; chronic administration p.o.): reversed | OB-induced changes of 5-HT, NA, 5-HIAA and DOPAC in the hippocampus ([4]; rat, in vivo): completely reversed | OB-induced decrease in 5-HT, NA and DA levels in the frontal cortex ([4]; rat, in vivo): also reversed | IL-1beta-induced down-regulation of collagen type II and beta1-integrin receptor expression [5]: reversed | IL-1beta-induced stimulation of protein kinase B Akt [5]: inhibited | IL-1beta-induced NF-kappaB activation ([5]; via inhibition of IkappaBalpha phosphorylation and degradation, p65 phosphorylation and nuclear translocation): suppressed | expression of NF-kappaB targets COX-2 and MMP-9 ([5]; western blotting): down-regulation | hippocampal neurogenesis ([6]; 10 and 20 mg/kg, p.o., 20 days chronic stress): increased hippocampal neurogenesis | 5-HT(1A) mRNA and BDNF protein levels in the hippocampal subfields ([6]; chronic stress): significantly prevented the stress-induced decrease

Cc1ncc(C[n+]2csc(CCO)c2C)c(N)n1 [Vitamin B1, thiamine]
cases of Baker's cyst cured without recurrence ([7]; thiamin alone injected): 13 out of 15 | cases of submandibular gland cyst cured without recurrence ([7]; thiamin alone injected): Two | completely cured [8]: 87% | no effect whatsoever [8]: 5% | relieved (pain almost nil to reduced) [8]: 8%

CCCc1ncc(C[n+]2ccccc2C)c(N)n1 [amprolium]
effect on cerebellar granule neurons [9]: caused apoptosis and the generation of reactive oxygen species

O=C(O)Cc1ccccc1Nc1c(Cl)cccc1Cl [diclofenac]
mean Lequesne's Algofunctional Index (LFI) at end ([10]; after the 6-week observation period): 9.4 | mean Lequesne's Algofunctional Index (LFI) at start ([10]; before the 6-week observation period): 12.5 | tolerability judgment ([10]; majority of patients): very good or good | global judgment of efficacy by physician, at least good ratings ([10]; share of patients, 6 weeks): 37.2%

CN(C)CCCN1c2ccccc2CCc2ccccc21 [imipramine]
hippocampal neurogenesis ([6]; 10 mg/kg, i.p.): increased hippocampal neurogenesis

Cc1ncc(C[n+]2csc(CCO)c2C)c(N)n1 [thiamin HCl]
osteosarcoma circumference before treatment ([7]; one case, pathology-confirmed): 30 cm | osteosarcoma circumference after treatment ([7]; subcutaneous perfusion of 300 once only, within 2 days): 20 cm | equivalent reduction in osteosarcoma volume ([7]; within 2 days): 50-75%

Cc1ncc(CO)c(CO)c1O [vitamin B-6, pyridoxine]
aortic lesions [11]: not in vitamin B6-supplemented rats
